Test results: patent publication US10793547B2, “Modulator of the cystic fibrosis transmembrane conductance regulator, pharmaceutical compositions, methods of treatment, and process for making the modulator” (Vertex Pharmaceuticals Incorporated, priority 2016, dated 2020)

What was measured:
[1] = MDCK-Wild Type permeability, 96 well + 0.1% BSA; type: in vitro ADME; details: dog, MDCK, A-B direction, read-out: MDCK-Wild Type-Permeability 96 well + 0.1% BSA Papp compound (A-B)
[2] = Metabolism of Compound 1 in vitro and in vivo
[3] = molecular target: T1, F508del-CFTR (Homo sapiens, UniProt P13569, DEL508-508); assay: Membrane potential optical (FLIPR) assay for F508del-CFTR modulators in NIH 3T3 cells; type: cell-based; details: NIH 3T3 cells expressing F508del; assay A1; read-out: CFTRdF508 Cor 3T3 FLIPR 384 CFTRdF508 MP 3T3 770 EC50
T1 construct: expressed in transfected cells
How it was run: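 NIH3T3 mouse fibroblasts stably expressing F508del, seeded on matrigel and cultured 18-24 h at 37 °C; for correction, cells were cultured with or without compound for 18-24 h. Cells were loaded with voltage-sensing dye, then compound was added in one step with a chloride gradient (chloride replaced by gluconate). Membrane potential was read by fluorescence.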

[4] = molecular target: T2, human PXR (Homo sapiens, UniProt O75469); assay: PXR assay: PXR mediated CYP3A4 induction in DPX-2 cell line; type: cell-based; details: DPX-2 cells
T2 construct: host or cells: DPX-2 cell line (derived from HepG2)
T2 sequence (O75469 1-434): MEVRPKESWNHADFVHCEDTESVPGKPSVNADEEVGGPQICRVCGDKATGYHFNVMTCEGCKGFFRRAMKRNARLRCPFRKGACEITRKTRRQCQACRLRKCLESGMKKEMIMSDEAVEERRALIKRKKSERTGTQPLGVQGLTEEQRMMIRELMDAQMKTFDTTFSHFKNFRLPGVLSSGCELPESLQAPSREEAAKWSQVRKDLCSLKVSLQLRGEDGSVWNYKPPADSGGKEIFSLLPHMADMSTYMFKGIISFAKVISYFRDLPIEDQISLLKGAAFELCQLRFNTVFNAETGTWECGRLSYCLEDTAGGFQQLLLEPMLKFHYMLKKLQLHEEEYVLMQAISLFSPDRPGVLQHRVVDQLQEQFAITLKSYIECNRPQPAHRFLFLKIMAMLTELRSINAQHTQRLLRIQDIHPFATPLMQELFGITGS
How it was run: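 HepG2-derived DPX-2 cells stably carrying human PXR and a CYP3A4 promoter/enhancer–luciferase reporter; 11 doses from 0.1 to 60 μM for 48 h, rifampicin as positive control. Viability read by fluorescence, then luciferase luminescence; max fold induction over vehicle and EC50 reported.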

[5] = test system: Rat hepatocytes; assay: Hepatocyte clearance, rat hepatocytes; type: in vitro ADME; details: percent unchanged
[6] = Rat IV and PO PK studies; type: in vivo, male Sprague-Dawley rats; details: for RAT PLASMA-RAW IV-bolus CL_drg: nominal 3.0 mg/kg; for RAT PLASMA-RAW PO % F_drg / AUC(0-inf): nominal 3 mg/kg, PO; for AUC(0-inf): male, Sprague-Dawley, plasma, read-out: RAT PLASMA-RAW PO AUC (0-inf)_drg
Experimental: C. Experimental Protocol for Rat IV and PO PK Studies
The tested compound was administered to male Sprague-Dawley rats as a single nominal intravenous dose of 3.0 mg/kg as a solution in 10% NMP, 10% solution, 15% EtOH, 35% PEG400 and 30% D5W. The tested compound was also administered to male Sprague-Dawley rats at single nominal oral dose of 3 mg/kg as a solution in 5% NMP, 30% PEG400, 10% TPGS, 5% PVP-K30 at 5 mL/kg dose volume. Analyses of plasma and dose preparations were performed using LC/MS/MS.
Plasma concentration-time profiles of the tested compound in Sprague-Dawley rats at scheduled (nominal) sampling times were analyzed by noncompartmental pharmacokinetic methods using PK function within Watson LIMS software, Version 7.4.2 (Thermo Scientific Inc, Waltham, Mass.). AUC values were calculated using the linear trapezoidal rule.

T1 sequence (P13569 with tags, fused parts or gaps DEL508-508): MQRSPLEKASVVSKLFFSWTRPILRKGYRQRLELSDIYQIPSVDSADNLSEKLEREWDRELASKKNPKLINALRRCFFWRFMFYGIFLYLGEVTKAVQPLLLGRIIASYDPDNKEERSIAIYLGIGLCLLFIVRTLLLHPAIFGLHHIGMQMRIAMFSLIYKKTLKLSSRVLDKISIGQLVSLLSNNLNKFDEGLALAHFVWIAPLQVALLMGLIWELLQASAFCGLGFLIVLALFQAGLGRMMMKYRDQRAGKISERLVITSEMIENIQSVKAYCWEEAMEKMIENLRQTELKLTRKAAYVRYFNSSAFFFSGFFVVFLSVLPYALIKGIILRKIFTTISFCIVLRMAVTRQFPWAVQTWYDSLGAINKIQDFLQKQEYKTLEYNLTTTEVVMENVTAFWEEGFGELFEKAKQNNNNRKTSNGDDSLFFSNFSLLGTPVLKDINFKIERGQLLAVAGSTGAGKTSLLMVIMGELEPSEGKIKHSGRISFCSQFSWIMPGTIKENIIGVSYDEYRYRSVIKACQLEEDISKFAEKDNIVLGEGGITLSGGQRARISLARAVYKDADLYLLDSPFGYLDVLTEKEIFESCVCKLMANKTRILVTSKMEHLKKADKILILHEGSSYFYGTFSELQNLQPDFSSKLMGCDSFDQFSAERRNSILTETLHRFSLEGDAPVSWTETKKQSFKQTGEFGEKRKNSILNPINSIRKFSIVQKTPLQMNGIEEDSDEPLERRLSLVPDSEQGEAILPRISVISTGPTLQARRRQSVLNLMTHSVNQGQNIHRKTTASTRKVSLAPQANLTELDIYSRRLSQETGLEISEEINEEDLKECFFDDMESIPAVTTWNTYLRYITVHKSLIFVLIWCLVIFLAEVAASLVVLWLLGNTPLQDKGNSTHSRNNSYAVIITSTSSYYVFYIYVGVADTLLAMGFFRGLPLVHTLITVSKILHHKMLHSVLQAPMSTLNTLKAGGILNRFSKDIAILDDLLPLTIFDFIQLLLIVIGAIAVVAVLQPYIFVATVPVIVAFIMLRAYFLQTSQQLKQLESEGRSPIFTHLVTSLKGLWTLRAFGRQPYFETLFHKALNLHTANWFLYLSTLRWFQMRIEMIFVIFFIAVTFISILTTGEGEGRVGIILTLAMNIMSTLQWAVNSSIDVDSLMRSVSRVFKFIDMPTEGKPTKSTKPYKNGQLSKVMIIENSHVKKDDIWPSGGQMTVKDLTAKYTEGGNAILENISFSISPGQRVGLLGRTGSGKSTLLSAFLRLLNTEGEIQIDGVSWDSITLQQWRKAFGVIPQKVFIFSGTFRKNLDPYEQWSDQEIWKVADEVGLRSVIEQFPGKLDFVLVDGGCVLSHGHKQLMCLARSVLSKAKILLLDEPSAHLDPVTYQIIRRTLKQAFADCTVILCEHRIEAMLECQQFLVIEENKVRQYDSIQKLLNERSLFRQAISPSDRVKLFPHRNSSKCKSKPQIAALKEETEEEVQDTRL

| SMILES | Papp A→B [1] | metabolite identity [2] | EC50 [3] | CYP3A4 Induction-PXR human PXR internal Max % Activity [4] | Hepatocyte clearance-Rat Rat hepatocytes CL pct_unchanged [5] | RAT PLASMA-RAW IV-bolus CL_drg [6] | RAT PLASMA-RAW PO % F_drg [6] | AUC(0-inf) [6] |
| --- | --- | --- | --- | --- | --- | --- | --- | --- |
| Cc1nn(C)cc1S(=O)(=O)NC(=O)c1ccc(-n2ccc(OCC(C)(C)C(F)(F)F)n2)nc1N1CC(CO)CC1(C)C (stereo not drawn) [Compound 30, N-(1,3-dimethylpyrazol-4-yl)sulfonyl-2-[4-(hydroxymethyl)-2,2-dimethyl-pyrrolidin-1-yl]-6-[3-(3,3,3-trifluoro-2,2-dimethyl-propoxy)pyrazol-1-yl]pyridine-3-carboxamide] | 0.6 ×10⁻⁶ cm/s | metabolites of Compound 1 | 950 nM | 4% | 39% | – | – | – |
| Cc1nn(C)cc1S(=O)(=O)NC(=O)c1ccc(-n2ccc(OCC(C)(CO)C(F)(F)F)n2)nc1N1C[C@@H](C)CC1(C)C (stereo partly drawn) [Compound 45, N-(1,3-dimethylpyrazol-4-yl)sulfonyl-6-[3-[3,3,3-trifluoro-2-(hydroxymethyl)-2-methyl-propoxy]pyrazol-1-yl]-2-[(4S)-2,2,4-trimethylpyrrolidin-1-yl]pyridine-3-carboxamide] | 1.2 ×10⁻⁶ cm/s | metabolites of Compound 1 | 560 nM | 9% | 49% | – | – | – |
| Cc1n[nH]cc1S(=O)(=O)NC(=O)c1ccc(-n2ccc(OCC(C)(C)C(F)(F)F)n2)nc1N1C[C@@H](C)CC1(C)C [Compound 31, (S)—N-((3-methyl-1H-pyrazol-4-yl)sulfonyl)-6-(3-(3,3,3-trifluoro-2,2-dimethylpropoxy)-1H-pyrazol-1-yl)-2-(2,2,4-trimethylpyrrolidin-1-yl)nicotinamide] | 1.1 ×10⁻⁶ cm/s | metabolites of Compound 1 | 410 nM | 1% | 30% | – | – | – |
| Cc1nn(C)cc1S(=O)(=O)NC(=O)c1ccc(-n2ccc(OCC3C(C)(C)C3(C)C)n2)nc1N1C[C@@H](C)CC1(C)C [Compound 20, N-(1,3-dimethylpyrazol-4-yl)sulfonyl-6-[3-[(2,2,3,3-tetramethylcyclopropyl)methoxy]pyrazol-1-yl]-2-[(4S)-2,2,4-trimethylpyrrolidin-1-yl]pyridine-3-carboxamide] | 1.4 ×10⁻⁶ cm/s | – | 170 nM | 4% | 13% | 4.9 mL/min/kg | 21% | 3000 ng·h/mL |
| Cc1nn(C)cc1S(=O)(=O)NC(=O)c1ccc(-n2ccc(OCC3C4(CC4)C34CC4)n2)nc1N1C[C@@H](C)CC1(C)C [Compound 28, (S)—N-((1,3-Dimethyl-1H-pyrazol-4-yl)sulfonyl)-6-(3-(dispiro[2.0.2.1]heptan-7-ylmethoxy)-1H-pyrazol-1-yl)-2-(2,2,4-trimethylpyrrolidin-1-yl)nicotinamide] | 2.2 ×10⁻⁶ cm/s | – | 90 nM | 4% | 41% | 1.8 mL/min/kg | 80% | 7100 ng·h/mL |
| C[C@H]1CC(C)(C)N2c3nc(-n4ccc(OCC(C)(C)C(F)(F)F)n4)ccc3C(=O)OC12 (stereo partly drawn) [Compound 57, (7S)-7,9,9-trimethyl-2-(3-(3,3,3-trifluoro-2,2-dimethylpropoxy)-1H-pyrazol-1-yl)-6a,7,8,9-tetrahydro-5H-pyrido[2,3-d]pyrrolo[2,1-b][1,3]oxazin-5-one] | – | metabolites of Compound 1 | 30000 nM | 13% | 35% | – | – | – |
| Cc1c(S(=O)(=O)NC(=O)c2ccc(-n3ccc(OCC4(C(F)(F)F)CC4)n3)nc2N2C[C@@H](C)CC2(C)C)cnn1C [Compound 9, N-(1,5-dimethylpyrazol-4-yl)sulfonyl-6-[3-[[1-(trifluoromethyl)cyclopropyl]methoxy]pyrazol-1-yl]-2-[(4S)-2,2,4-trimethylpyrrolidin-1-yl]pyridine-3-carboxamide] | 6.1 ×10⁻⁶ cm/s | – | 420 nM | 7% | 30% | 1.7 mL/min/kg | 99% | 23400 ng·h/mL |
| Cc1nn(C)cc1S(=O)(=O)N1C(=O)c2ccc(-n3ccc(OCC(C)(C)C(F)(F)F)n3)nc2N2C1[C@@H](C)CC2(C)C (stereo partly drawn) [Compound 36, (75)-6-((1,3-dimethyl-1H-pyrazol-4-yl)sulfonyl)-7,9,9-trimethyl-2-(3-(3,3,3-trifluoro-2,2-dimethylpropoxy)-1H-pyrazol-1-yl)-6a,7,8,9-tetrahydropyrido[3,2-e]pyrrolo[1,2-a]pyrimidin-5(6H)-one] | – | metabolites of Compound 1 | – | – | – | – | – | – |
| C[C@@H]1CN(c2nc(-n3ccc(OCC(C)(C)C)n3)ccc2C(=O)NS(=O)(=O)c2ccccc2)C(C)(C)C1 [C, reference compound] | 1.5 ×10⁻⁶ cm/s | – | 120 nM | 9% | 6% | 29.2 mL/min/kg | – | – |
| C[C@@H]1CN(c2nc(-n3ccc(OCC(C)(C)C(F)(F)F)n3)ccc2C(=O)NS(=O)(=O)c2cn(C)nc2CO)C(C)(C)C1 [Compound 39, N-[3-(hydroxymethyl)-1-methyl-pyrazol-4-yl]sulfonyl-6-[3-(3,3,3-trifluoro-2,2-dimethyl-propoxy)pyrazol-1-yl]-2-[(4S)-2,2,4-trimethylpyrrolidin-1-yl]pyridine-3-carboxamide] | – | metabolites of Compound 1 | 460 nM | 1% | 39% | – | – | – |
| Cc1nn(C)cc1S(=O)(=O)NC(=O)c1ccc(-n2ccc(OCCC3(C(F)(F)F)CC3)n2)nc1N1C[C@@H](C)CC1(C)C [Compound 15, N-(1,3-dimethylpyrazol-4-yl)sulfonyl-6-[3-[2-[1-(trifluoromethyl)cyclopropyl]ethoxy]pyrazol-1-yl]-2-[(4S)-2,2,4-trimethylpyrrolidin-1-yl]pyridine-3-carboxamide] | 2.7 ×10⁻⁶ cm/s | – | 130 nM | 3% | 97% | 2.5 mL/min/kg | 66% | 16300 ng·h/mL |
